The assay addresses T1, F508delCFTR (Homo sapiens, UniProt P13569, DEL508-508).
T1 construct: expressed in transfected cells; host or cells: CFBE4lo-F508delCFTR-HRP cells (human lung derived epithelial cell line, doxycycline-inducible)
Kind of assay: Cell Surface Expression-Horse Radish Peroxidase (CSE-HRP) Assay. It counts as cell-based. As to conditions: for EC50: CFBE4lo-F508delCFTR-HRP cells, 18-24 hours at 33° C.; for Emax / Maximum % activity (with co-corrector): maximum at any tested concentration (up to 20 μM), normalized to on-plate positive control (2 μM co-corrector); for Maximum % activity (with co-corrector): with co-corrector 2 μM. Summed up: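 Surface F508delCFTR measured via exofacial-loop HRP luminescence (luminol) in doxycycline-induced (0.5 μg/mL, 72 h) CFBE4lo− cells. Compounds, 20 μM top, 3-fold, 8 concentrations, ±2 μM co-corrector, incubated 18-24 h at 33° C; EC50 by variable-slope sigmoidal fit of % activity relative to positive control, three replicate plates.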

[1] abbreviates: test compound without co-corrector, HRP luminescence readout, read-out: EC50 (without co-corrector).
[2] abbreviates: test compound without co-corrector.
The mark [3] stands for this setting: with co-corrector 2 μM 3-[(2R,4R)-4-({[1-(2,2-difluoro-1,3-benzodioxol-5-yl)cyclopropyl]carbonyl}amino)-7-methoxy-3,4-dihydro-2H-chromen-2-yl]benzoic acid, read-out: EC50 (with co-corrector).

We go through 12 molecules from patent publication US10428017B2, “Modulators of the cystic fibrosis transmembrane conductance regulator protein and methods of use” (AbbVie S.à.r.l., priority 2017, dated 2019).

Where two headings read alike, the source gives them in different places.

Broadly, the EC50 is the concentration giving half of the maximal effect. As a reminder, the Emax is the greatest response seen or fitted, relative to the assay's reference.

T1 sequence (P13569 with tags, fused parts or gaps DEL508-508): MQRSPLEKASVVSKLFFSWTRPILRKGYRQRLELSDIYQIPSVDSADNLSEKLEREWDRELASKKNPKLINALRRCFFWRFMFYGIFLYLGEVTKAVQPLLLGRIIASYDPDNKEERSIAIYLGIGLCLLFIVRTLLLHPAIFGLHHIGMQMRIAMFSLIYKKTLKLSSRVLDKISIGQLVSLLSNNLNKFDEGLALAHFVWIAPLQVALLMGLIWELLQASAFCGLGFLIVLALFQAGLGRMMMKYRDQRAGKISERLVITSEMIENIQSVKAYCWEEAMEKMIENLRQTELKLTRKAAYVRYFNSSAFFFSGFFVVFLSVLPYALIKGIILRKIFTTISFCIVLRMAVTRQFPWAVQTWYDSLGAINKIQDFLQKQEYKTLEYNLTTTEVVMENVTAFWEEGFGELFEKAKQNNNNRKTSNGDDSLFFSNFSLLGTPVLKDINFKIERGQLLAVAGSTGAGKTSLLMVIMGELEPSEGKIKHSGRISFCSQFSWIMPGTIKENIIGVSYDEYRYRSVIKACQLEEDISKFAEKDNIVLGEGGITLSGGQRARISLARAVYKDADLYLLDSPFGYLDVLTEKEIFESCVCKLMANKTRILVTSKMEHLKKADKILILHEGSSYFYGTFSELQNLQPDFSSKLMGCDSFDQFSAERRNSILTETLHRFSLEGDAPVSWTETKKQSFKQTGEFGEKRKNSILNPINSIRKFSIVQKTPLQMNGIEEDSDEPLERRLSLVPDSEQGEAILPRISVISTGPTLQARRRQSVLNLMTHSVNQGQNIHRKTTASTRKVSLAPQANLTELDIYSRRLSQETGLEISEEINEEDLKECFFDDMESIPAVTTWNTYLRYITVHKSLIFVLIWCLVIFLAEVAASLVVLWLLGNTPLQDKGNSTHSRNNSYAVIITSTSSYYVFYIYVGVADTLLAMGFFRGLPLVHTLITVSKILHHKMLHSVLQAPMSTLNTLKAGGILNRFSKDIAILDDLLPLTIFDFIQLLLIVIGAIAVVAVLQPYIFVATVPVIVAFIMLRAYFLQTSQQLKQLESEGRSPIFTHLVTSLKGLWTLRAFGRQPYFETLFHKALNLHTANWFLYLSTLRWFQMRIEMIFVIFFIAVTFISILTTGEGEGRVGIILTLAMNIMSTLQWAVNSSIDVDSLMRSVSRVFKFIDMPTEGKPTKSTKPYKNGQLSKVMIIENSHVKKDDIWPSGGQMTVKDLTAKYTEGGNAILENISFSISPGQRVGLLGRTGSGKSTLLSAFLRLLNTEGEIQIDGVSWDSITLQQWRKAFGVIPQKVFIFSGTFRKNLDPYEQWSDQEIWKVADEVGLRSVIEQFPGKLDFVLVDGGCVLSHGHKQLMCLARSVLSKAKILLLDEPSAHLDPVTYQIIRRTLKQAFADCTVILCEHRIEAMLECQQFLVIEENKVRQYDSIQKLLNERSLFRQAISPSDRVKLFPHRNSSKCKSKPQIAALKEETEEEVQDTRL

On to `COc1ccc(C2CCC2)c2c1[C@H](C(=O)NS(=O)(=O)c1cccc3cnn(C)c13)CO2` [Example 95, (3S)-7-cyclobutyl-4-methoxy-N-(1-methyl-1H-indazole-7-sulfonyl)-2,3-dihydro-1-benzofuran-3-carboxamide], for which the “Maximum % activity (with co-corrector)” value is given as “+++ (≥350)”. Further, the concentration giving a half-maximal response (EC50) under setting [1] was less than 3 µM. This molecule also came in with an Emax under setting [2] of no less than 150%. Under setting [3], the EC50 is less than 3 µM.
As to `COc1ccc(C2CCC2)c2c1[C@@H](C(=O)NS(=O)(=O)c1cccc3c1CCCN3)CC(C)(C)O2` [Example 96, (4S)-8-cyclobutyl-5-methoxy-2,2-dimethyl-N-(1,2,3,4-tetrahydroquinoline-5-sulfonyl)-3,4-dihydro-2H-1-benzopyran-4-carboxamide], the “Maximum % activity (with co-corrector)” value is “+++ (≥350)”. The EC50 under setting [1] was less than 3 µM. Under setting [2], the maximal response (Emax) was no less than 150%. Moreover, the 50% effective concentration (EC50) under setting [3] was less than 3 µM.
Consider `COc1ccc(C2CCC2)c2c1[C@H](C(=O)NS(=O)(=O)c1cccc3c1NCCC3)CO2` [Example 99, (3S)-7-cyclobutyl-4-methoxy-N-(1,2,3,4-tetrahydroquinoline-8-sulfonyl)-2,3-dihydro-1-benzofuran-3-carboxamide], for which the “Maximum % activity (with co-corrector)” value is on record as “+++ (≥350)”. For the same molecule, the EC50 under setting [1] was less than 3 µM. Under setting [2], this molecule showed an Emax of no less than 150%. Further, the concentration for a half-maximal effect (EC50) under setting [3] is less than 3 µM.
Take `COc1ccc(C2CCC2)c2c1[C@@H](C(=O)NS(=O)(=O)c1cccc3c1CCCN3)CO2` [Example 100, (3R)-7-cyclobutyl-4-methoxy-N-(1,2,3,4-tetrahydroquinoline-5-sulfonyl)-2,3-dihydro-1-benzofuran-3-carboxamide]: the “Maximum % activity (with co-corrector)” value is reported as “+++ (≥350)”. In addition, under setting [1], the concentration giving a half-maximal response (EC50) was 3 to 10 µM. The molecule also returned an Emax under setting [2] of 50 to 150%. For the same molecule, the concentration for a half-maximal effect (EC50) under setting [3] fell in the range of 3 to 10 µM.
As to `COc1ccc(C2CCC2)c2c1[C@H](C(=O)NS(=O)(=O)c1cccc3c1CCCN3)CO2` [Example 101, (3S)-7-cyclobutyl-4-methoxy-N-(1,2,3,4-tetrahydroquinoline-5-sulfonyl)-2,3-dihydro-1-benzofuran-3-carboxamide], the “Maximum % activity (with co-corrector)” value was “+++ (≥350)”. The concentration giving a half-maximal response (EC50) under setting [1] is less than 3 µM. Further, the Emax under setting [2] was no less than 150%. Besides, the EC50 under setting [3] was less than 3 µM.
On to `COc1ccc(C2CCC2)c2c1C(C(=O)NS(=O)(=O)c1cccc3[nH]ccc13)CCO2` (stereo not shown) [Example 102, 8-cyclobutyl-N-(1H-indole-4-sulfonyl)-5-methoxy-3,4-dihydro-2H-1-benzopyran-4-carboxamide], for which the “Maximum % activity (with co-corrector)” value is “+++ (≥350)”. In addition, the EC50 under setting [1] was less than 3 µM. The molecule also had a maximal response (Emax) under setting [2] of no less than 150%. In addition, under setting [3], the concentration for a half-maximal effect (EC50) was less than 3 µM.
For `COc1ccc(C2CCC2)c2c1[C@@H](C(=O)NS(=O)(=O)c1cccc3[nH]ccc13)CCO2` [Example 103, (4S)-8-cyclobutyl-N-(1H-indole-4-sulfonyl)-5-methoxy-3,4-dihydro-2H-1-benzopyran-4-carboxamide], the “Maximum % activity (with co-corrector)” value is reported as “+++ (≥350)”. Further, under setting [1], the EC50 lay in the range of 3 to 10 µM. Moreover, the Emax under setting [2] is no less than 150%. The concentration giving a half-maximal response (EC50) under setting [3] was less than 3 µM.
In the case of `COc1ccc(C2CCC2)c2c1[C@H](C(=O)NS(=O)(=O)c1cccc3[nH]ccc13)CCO2` [Example 104, (4R)-8-cyclobutyl-N-(1H-indole-4-sulfonyl)-5-methoxy-3,4-dihydro-2H-1-benzopyran-4-carboxamide], the “Maximum % activity (with co-corrector)” value was “+++ (≥350)”. Besides, the EC50 under setting [1] was less than 3 µM. Under setting [2], this molecule registered an Emax of no less than 150%. The EC50 under setting [3] is less than 3 µM.
As to `COc1ccc(C2CCC2)c2c1OCCC2C(=O)NS(=O)(=O)c1cccc2ncccc12` (stereo not shown) [Example 105, 5-cyclobutyl-8-methoxy-N-(quinoline-5-sulfonyl)-3,4-dihydro-2H-1-benzopyran-4-carboxamide], the “Maximum % activity (with co-corrector)” value was “+++ (≥350)”. In addition, the EC50 under setting [1] lay within 3 to 10 µM. The molecule further came in with an Emax under setting [2] of no less than 150%. Moreover, the EC50 under setting [3] is less than 3 µM.
For `COc1ccc(Br)c2c1CCOC2C(=O)NS(=O)(=O)c1cccc2ccccc12` (stereo not shown) [Example 108, 8-bromo-5-methoxy-N-(naphthalene-1-sulfonyl)-3,4-dihydro-1H-2-benzopyran-1-carboxamide], the “Maximum % activity (with co-corrector)” value is given as “+++ (≥350)”. The EC50 under setting [1] lay within 3 to 10 µM. For the same molecule, the maximal response (Emax) under setting [2] lay in the range of 50 to 150%. Also, the EC50 under setting [3] is less than 3 µM.
Regarding `O=C(NS(=O)(=O)c1cccc2ccccc12)C1OCCc2ccc(OC(F)(F)F)cc21` (stereo not shown) [Example 109, N-(naphthalene-1-sulfonyl)-7-(trifluoromethoxy)-3,4-dihydro-1H-2-benzopyran-1-carboxamide], the “Maximum % activity (with co-corrector)” value was “++ (≥150 and <350)”. In addition, the half-maximal effective concentration (EC50) under setting [3] fell in the range of 3 to 10 µM.
Consider `COc1cccc2c1CCOC2C(=O)NS(=O)(=O)c1cccc2ccccc12` (stereo not shown) [Example 110, 5-methoxy-N-(naphthalene-1-sulfonyl)-3,4-dihydro-1H-2-benzopyran-1-carboxamide], for which the “Maximum % activity (with co-corrector)” value was “++ (≥150 and <350)”. In addition, the EC50 under setting [1] is no less than 10 µM. The Emax under setting [2] is less than 50%. The EC50 under setting [3] was 3 to 10 µM.
